Measurements published in US20220031710A1, “USE OF ERK5 INHIBITORS FOR TREATING GLIOMAS IN PEDIATRIC SUBJECTS” (UNIVERSITY OF PITTSBURGH - OF THE COMMONWEALTH SYSTEM OF …, priority 2019, published 2022).

Legend:
[1] = test system: DIPG-007, DIPG-IV, SF8628, and DIPG-13p cells; test: Alamar blue viability EC50 dose response in H3K27M DIPG cells; assay type: cell-based; conditions: Homo sapiens, 96 h, SF8628, DIPG-13p cells, lowest of the ERK5 inhibitors tested
Method: (§1) Human Neural Stem Cells (H9 hESC-Derived) were purchased from Invitrogen and grown in DMEM/F12 containing penicillin/streptomycin/amphotericin B (1% vol/vol) supplemented with N2 (2% vol/vol; Invitrogen), EGF (20 ng/ml; Invitrogen), and FGF-2 (20 ng/ml; Invitrogen). DIPG cell lines (all with the H3K27M mutation) SU-DIPG-IV (DIPG-IV), SU-DIPG-13p (DIPG-13p), and HSJD-DIPG-007 (DIPG-007) were grown and passaged in DIPG medium as previously reported (Grasso et al., Nature medicine 2015; 21:555-9; Nagaraja et al., Cancer cell 2017; 31:635-52 e6; Vinci et al., Nature medicine 2018). SF8628 and immortalized NHAs were grown in DMEM (Invitrogen) supplemented with 10% FBS (Invitrogen). All cell lines were confirmed by STR profiling and tested mycoplasma negative by PCR. All tumor-derived cell lines used are described in Table 2.
(§2) Direct cell counts were performed using the Countess II FL Automated Cell Counter (ThermoFisher Scientific). Alamar blue viability (ThermoFisher Scientific) and the 5-bromo-2′-deoxyuridine (BrdU) incorporated cell proliferation assay (Cell Signaling Technology Cat #6813) were performed using the manufacturer's standard protocol. EC50 curve analysis was performed using raw fluorescent Alamar blue values that were inputted into PRISM 7.0. Drug concentrations were log 10 transformed and values normalized to percent viability with respect to vehicle treated cells. […]

[2] = test system: NSCs; test: Alamar blue viability EC50 in neural stem cells; assay type: cell-based, human
Method: as §1, §2

[3] = test system: DIPG-007, DIPG-IV, SF8628 and DIPG-13p cells; test: Direct Trypan-Blue automated cell count of DIPG cells; assay type: cell-based, human
Method: Direct cell counts were performed using the Countess II FL Automated Cell Counter (ThermoFisher Scientific). Alamar blue viability (ThermoFisher Scientific) and the 5-bromo-2′-deoxyuridine (BrdU) incorporated cell proliferation assay (Cell Signaling Technology Cat #6813) were performed using the manufacturer's standard protocol. EC50 curve analysis was performed using raw fluorescent Alamar blue values that were inputted into PRISM 7.0. Drug concentrations were log 10 transformed and values normalized to percent viability with respect to vehicle treated cells. EC50 values were interpolated from a log inhibitor vs. normalized response with variable slope using a least square fit model.

[4] = test system: MYCN; test: MYCN qRT-PCR and western blot in DIPG-13p cells; assay type: cell-based, human
Method: Cell pellets were lysed in PLC lysis buffer containing protease and phosphatase inhibitors (Roche Inc.). Protein lysates were quantified using the bicinchoninic acid (BCA) assay (Pierce Chemical Co., Rockford, Ill.). 30 μg of total protein lysate was loaded in 10% SDS-PAGE gels and electrophoresed. Proteins were transferred to PVDF membranes using a semi-dry transfer apparatus (Bio-Rad). Membranes were blocked for one hour and probed for various proteins overnight in 5% non-fat milk or 5% BSA in Tris Buffered Saline Solution, 0.5% Tween-20 (TBST) or Phosphate Buffered Saline Solution with 0.5% Tween-20 (PBST). […] Binding was detected using Chemiluminescence Reagent Plus (PerkinElmer Inc., MA, USA). […]
Total RNA isolation was performed using an RNA extraction kit according to the manufacturer's instructions (RNeasy kit, Qiagen). cDNA was synthesized from 100 ng of total RNA using the Quantitect RT kit which included DNAse treatment (Qiagen). Quantitative real-time PCR was performed on 10 ng of cDNA template in a final volume of 20 μl using the Chromo4 Real Time PCR detector (MJ Research, a Division of Bio-Rad Laboratories Ltd) using SYBR green fluorescence. RT-PCR data was analyzed using Opticon Monitor 3.1.3 analysis software. […]

[5] = test system: SF8628 intracranial xenografts; test: SF8628 orthotopic xenograft model; assay type: in vivo, mice
Method: Paraffin embedded blocks were cut in 5 μm sections. Slides were processed as follows: de-waxed in xylene followed by rehydration in a standard alcohol series. Antigen retrieval was by pressure cooking for 20 minutes in citrate buffer (pH 6.0), followed by blocking of endogenous peroxidase in 3% H2O2. The antibodies were added and incubated overnight at 4° C. Antibodies were detected using a secondary-HRP labeled mouse or rabbit antibody detection system (Dako EnVision+ System-HRP cat #k4401, cat #k4403) followed by addition 3,3′-Diaminobenzidine (DAB) chromagen (Vector Labs) for visualization. Sections were counter-stained with hematoxylin (Fisher Scientific Inc., Canada) and slides dehydrated in 70, 80, and 100% ethanol and xylene. Slides were cover slipped and mounted in Permount (Fisher Scientific Inc.). Antibodies and concentrations for IHC are as follows: Ki67 (1:100, Dako, cat #F7268). All images were captured on a Leica DM 100 microscope using Leica Application Suite Software (Switzerland, Version 3.8.0).
(§3) All animal procedures were carried out ethically according to animal user protocols approved by Institutional Animal Care Committee (IACUC). 4-6 week-old non-obese diabetic severe combined immune deficiency male or female mice (NOD-SCID-Prkdc^scid) were injected with 1×10^5 SU-DIPG-13p cells or 1×10^5 SF8628 DIPG cells. […]

[6] = target: ERK5 (Homo sapiens, UniProt Q13164); test: Western blot of tumor lysates from treated mice (pERK5, cleaved PARP); assay type: in vivo; design: from tissue; host or cells: Tumour lysates from orthotopic DIPG xenografts (SF8628 or DIPG-13p) in NOD-SCID mice; conditions: mice sacrificed after 5 days of treatment
Chain of ERK5 (Q13164 whole entry): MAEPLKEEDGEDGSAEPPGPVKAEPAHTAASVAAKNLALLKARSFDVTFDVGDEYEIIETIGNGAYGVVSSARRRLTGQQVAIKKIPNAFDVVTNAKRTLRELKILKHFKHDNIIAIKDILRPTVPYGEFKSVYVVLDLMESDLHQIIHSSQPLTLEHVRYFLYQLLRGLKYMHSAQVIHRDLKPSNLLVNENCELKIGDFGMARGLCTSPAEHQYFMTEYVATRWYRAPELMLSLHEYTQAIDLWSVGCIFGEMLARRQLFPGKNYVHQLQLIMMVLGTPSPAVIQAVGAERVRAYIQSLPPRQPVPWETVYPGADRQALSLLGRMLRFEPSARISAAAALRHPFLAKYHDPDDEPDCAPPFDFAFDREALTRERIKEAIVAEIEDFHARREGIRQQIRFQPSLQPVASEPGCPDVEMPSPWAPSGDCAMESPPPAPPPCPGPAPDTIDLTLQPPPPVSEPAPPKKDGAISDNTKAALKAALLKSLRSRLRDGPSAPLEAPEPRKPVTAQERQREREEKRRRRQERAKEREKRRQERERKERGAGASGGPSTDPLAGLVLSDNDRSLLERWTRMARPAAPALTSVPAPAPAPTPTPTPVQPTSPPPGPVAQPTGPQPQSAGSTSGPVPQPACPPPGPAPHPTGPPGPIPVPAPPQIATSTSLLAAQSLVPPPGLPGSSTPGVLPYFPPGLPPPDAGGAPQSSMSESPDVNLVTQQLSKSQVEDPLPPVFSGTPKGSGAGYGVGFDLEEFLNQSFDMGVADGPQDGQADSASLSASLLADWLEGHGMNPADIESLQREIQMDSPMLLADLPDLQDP
Method: Cell pellets were lysed in PLC lysis buffer containing protease and phosphatase inhibitors (Roche Inc.). Protein lysates were quantified using the bicinchoninic acid (BCA) assay (Pierce Chemical Co., Rockford, Ill.). 30 μg of total protein lysate was loaded in 10% SDS-PAGE gels and electrophoresed. Proteins were transferred to PVDF membranes using a semi-dry transfer apparatus (Bio-Rad). Membranes were blocked for one hour and probed for various proteins overnight in 5% non-fat milk or 5% BSA in Tris Buffered Saline Solution, 0.5% Tween-20 (TBST) or Phosphate Buffered Saline Solution with 0.5% Tween-20 (PBST). Membranes were washed for 5 mins in TBST (3×) and incubated with horseradish peroxidase-conjugated antibodies specific for the primary antibody (BioRad Laboratories, Inc., CA, USA). Binding was detected using Chemiluminescence Reagent Plus (PerkinElmer Inc., MA, USA). Antibodies were used at the following dilutions:
as §3

CCOc1cc(C(=O)N2CCC(N3CCN(C)CC3)CC2)ccc1Nc1ncc2c(n1)N(C1CCCC1)c1ccccc1C(=O)N2C [ERK5-IN-1, 11-cyclopentyl-2-[[2-ethoxy-4-[[4-(4-methyl-1-piperazinyl)-1-piperidinyl]carbonyl]phenyl]amino]-5,11-dihydro-5-methyl-6H-pyrimido[4,5b][1,4]benzodiazepin-6-one]
EC50 [1]: 500 to 1000 nM
ERK5-IN-1 EC50 values ([2]; NSCs and NSCs over expressing wildtype H3, compared to H3K27M DIPG and hemispheric pGBM lines): higher
ERK5-IN-1 EC50 values ([2]; NSCs expressing H3K27M): significantly lower
cell number ([3]; 500 nM, 9 days of treatment, DIPG-007, DIPG-IV, SF8628 cells, vs vehicle): significant decreases in cell number
cell growth ([3]; DIPG-13p and SF8628 cells): diminished cell growth
MYCN protein and transcript levels [4]: down-regulation
median survival ([5]; 50 mg/kg for 2 weeks (2 cycles of 5 days on 2 days off), SF8628 intracranial xenografts): 40 days
KI-67 staining ([5]; 50 mg/kg, SF8628 xenograft tumors, vs vehicle): reduced
apoptosis by cleaved PARP in vivo [6]: induction of apoptosis
in vivo ERK5 auto-phosphorylation [6]: inhibition of ERK5 auto-phosphorylation
